In brackets after ≈: the same amount, converted by molar mass. Read-outs that look alike come from different tables or passages of the source.
Assays:
Type in all cases: cell-based
[1] = tested on: Staphylococcus aureus 100 (MSSA); assay: MIC by broth microdilution, SA 100; conditions: read-out: MIC SA 100
Description: (§1) As used herein, the term “minimum inhibitory concentration” (MIC) refers to the lowest concentration of an antibiotic that is needed to inhibit growth of a bacterial isolate in vitro. A common method for determining the MIC of an antibiotic is to prepare several tubes containing serial dilutions of the antibiotic, that are then inoculated with the bacterial isolate of interest.
(§2) Antibacterial activity in vitro is investigated by broth microdilution method in Meuller-Hinton broth as recommended by NCCLS. All strains tested are clinical isolates either sensitive or resistant to natural glycopeptides. MIC values were determined using the CLSI-recommended broth microdilution procedure (Clinical and Laboratoratory Standards Institute, Methods for Dilution Antimicrobial Susceptibility Tests for Bacteria That Grow Aerobically; Approved Standard-Seventh Edition.). Automated liquid handlers (Multidrop 384, Labsystems, Helsinki, Finland; Biomek 2000 and Multimek 96, Beckman Coulter, Fullerton Calif.) were used to conduct serial dilutions and liquid transfers.

[2] = tested on: Staphylococcus aureus 757 (MRSA); assay: MIC by broth microdilution, SA 757; conditions: read-out: MIC SA 757
Description: as §1, §2

[3] = tested on: Staphylococcus aureus 2012 (VISA); assay: MIC by broth microdilution, SA 2012; conditions: read-out: MIC SA 2012
Description: as §1, §2

[4] = tested on: Staphylococcus epidermidis 835 (MSSE); assay: MIC by broth microdilution, SE 835; conditions: read-out: MIC SE 835
Description: as §1, §2

[5] = tested on: Staphylococcus epidermidis 831 (MRSE); assay: MIC by broth microdilution, SE 831; conditions: read-out: MIC SE 831
Description: as §1, §2

[6] = tested on: Enterococcus faecalis 101 (vancomycin sensitive); assay: MIC by broth microdilution, EFC 101; conditions: read-out: MIC EFC 101
Description: as §1, §2

[7] = tested on: Enterococcus faecalis 848 (VRE); assay: MIC by broth microdilution, EFC 848; conditions: read-out: MIC EFC 848
Description: as §1, §2

[8] = tested on: Enterococcus faecium 750 (vancomycin sensitive); assay: MIC by broth microdilution, EFCM 750; conditions: read-out: MIC EFCM 750
Description: as §1, §2

[9] = tested on: Enterococcus faecium 752 (VRE); assay: MIC by broth microdilution, EFCM 752; conditions: read-out: MIC EFCM 752
Description: as §1, §2

[10] = tested on: Streptococcus pneumoniae 1195 (penicillin sensitive); assay: MIC by broth microdilution, SPNE 1195; conditions: read-out: MIC SPNE 1195
Description: as §1, §2

[11] = tested on: Streptococcus pyogenes 712 (penicillin sensitive); assay: MIC by broth microdilution, SPYO 712; conditions: read-out: MIC SPYO 712
Description: as §1, §2

SMILES: CCCCCCCCNC(=O)NC(=O)C[C@@H]1NC(=O)[C@H](NC(=O)[C@@H](CC(C)C)NC)[C@H](O)c2ccc(c(Cl)c2)Oc2cc3cc(c2O)Oc2ccc(cc2Cl)[C@@H](O)[C@H]2NC(=O)[C@H](NC(=O)[C@@H]3NC1=O)c1ccc(O)c(c1)-c1c(O)cc(O)cc1[C@@H](C(=O)NC1C3CC4CC(C3)CC1C4)NC2=O (stereo partly shown) [Compound 23]
- MIC ([1]; Staphylococcus aureus 100 (MSSA), clinical isolate, Mueller-Hinton broth): 2 µg/mL (≈ 1.4 µM)
- MIC ([2]; Staphylococcus aureus 757 (MRSA), clinical isolate, Mueller-Hinton broth): 2 µg/mL (≈ 1.4 µM)
- MIC ([3]; Staphylococcus aureus 2012 (VISA), clinical isolate, Mueller-Hinton broth): 2 µg/mL (≈ 1.4 µM)
- MIC ([4]; Staphylococcus epidermidis 835 (MSSE), clinical isolate, Mueller-Hinton broth): 2 µg/mL (≈ 1.4 µM)
- MIC ([5]; Staphylococcus epidermidis 831 (MRSE), clinical isolate, Mueller-Hinton broth): 1 µg/mL (≈ 0.698 µM)
- MIC ([6]; Enterococcus faecalis 101 (vancomycin sensitive), clinical isolate, Mueller-Hinton broth): 2 µg/mL (≈ 1.4 µM)
- MIC ([7]; Enterococcus faecalis 848 (VRE), clinical isolate, Mueller-Hinton broth): 2 µg/mL (≈ 1.4 µM)
- MIC ([8]; Enterococcus faecium 750 (vancomycin sensitive), clinical isolate, Mueller-Hinton broth): 1 µg/mL (≈ 0.698 µM)
- MIC ([9]; Enterococcus faecium 752 (VRE), clinical isolate, Mueller-Hinton broth): 2 µg/mL (≈ 1.4 µM)
- MIC ([10]; Streptococcus pneumoniae 1195 (penicillin sensitive), clinical isolate, Mueller-Hinton broth): 0.5 µg/mL (≈ 0.349 µM)
- MIC ([11]; Streptococcus pyogenes 712 (penicillin sensitive), clinical isolate, Mueller-Hinton broth): 0.25 µg/mL (≈ 0.175 µM)

SMILES: CN[C@H](CC(C)C)C(=O)N[C@H]1C(=O)N[C@@H](CC(N)=O)C(=O)N[C@H]2C(=O)N[C@H]3C(=O)N[C@H](C(=O)N[C@H](C(=O)O)c4cc(O)cc(O)c4-c4cc3ccc4O)[C@H](O)c3ccc(c(Cl)c3)Oc3cc2cc(c3O[C@@H]2O[C@H](CO)[C@@H](O)[C@H](O)[C@H]2O[C@H]2C[C@](C)(N)[C@H](O)[C@H](C)O2)Oc2ccc(cc2Cl)[C@H]1O [Vancomycin, vancomycin]
- MIC ([1]; Staphylococcus aureus, MSSA): 1 µg/mL (≈ 0.69 µM)
- MIC ([2]; Staphylococcus aureus, MRSA): 1 µg/mL (≈ 0.69 µM)
- MIC ([3]; Staphylococcus aureus, VISA): 8 µg/mL (≈ 5.52 µM)
- MIC ([4]; Staphylococcus epidermidis): 2 µg/mL (≈ 1.38 µM)
- MIC ([5]; Staphylococcus epidermidis, MRSE): 2 µg/mL (≈ 1.38 µM)
- MIC ([6]; Enterococcus faecalis): 2 µg/mL (≈ 1.38 µM)
- MIC ([7]; Enterococcus faecalis, VRE): > 64 µg/mL
- MIC ([8]; Enterococcus faecium): 1 µg/mL (≈ 0.69 µM)
- MIC ([9]; Enterococcus faecium, VRE): > 64 µg/mL
- MIC ([10]; Streptococcus pneumoniae): 0.25 µg/mL (≈ 0.173 µM)
- MIC ([11]; Streptococcus pyogenes): 0.5 µg/mL (≈ 0.345 µM)

From US20100216699A1, “SEMI-SYNTHETIC GLYCOPEPTIDES HAVING ANTIBACTERIAL ACTIVITY” (LEAD THERAPEUTICS, INC., priority 2009, published 2010)
